Test results published in US4146719A, “Piperazinyl derivatives of quinoline carboxylic acids” (priority 1977, dated 1979).
≈ marks a conversion by molar mass, not a printed value. Where two headings read alike, the source gives them in different places.

Key:
[1] = tested on: Bacillus subtilis PCI 219; assay: Antibacterial activity in vitro, M.I.C., agar dilution streak method; format: cell-based; conditions: Bacillus subtilis, PCI219
[2] = tested on: Staphylococcus aureus 209P; assay: as above; format: cell-based; conditions: Staphylococcus aureus, 209P
Sta. aureus ATCC 14775 = assay: as above; format: cell-based, Staphylococcus aureus; conditions: Staphylococcus aureus, ATCC14775
[3] = tested on: Streptococcus pyogenes IID 692; assay: as above; format: cell-based; conditions: Streptococcus pyogenes, IID692
Str. pyogenes S-8 = assay: as above; format: cell-based, Streptococcus pyogenes; conditions: Streptococcus pyogenes, S8
[4] = tested on: Diplococcus pneumoniae IID 552; assay: as above; format: cell-based; conditions: Streptococcus pneumoniae, IID552
[5] = tested on: Mycobacterium phlei IFO 3142; assay: as above; format: cell-based; conditions: Mycolicibacterium phlei, IFO3142
My. smegmatis IFO 3083 = assay: as above; format: cell-based; conditions: Mycolicibacterium smegmatis, IFO3083
Escherichia coli NIHJ = assay: as above; format: cell-based; conditions: Escherichia coli
E. coli ATCC 10536 = assay: as above; format: cell-based, Escherichia coli; conditions: Escherichia coli, ATCC10536
[6] = tested on: Proteus vulgaris IFO 3167; assay: as above; format: cell-based; conditions: Proteus vulgaris, IFO3167
Pr. vulgaris XK Denken = assay: as above; format: cell-based, Proteus vulgaris; conditions: Proteus vulgaris
[7] = tested on: Klebsiella pneumoniae IFO 3512; assay: as above; format: cell-based; conditions: Klebsiella pneumoniae, IFO3512
[8] = tested on: Salmonella enteritidis IID 604; assay: as above; format: cell-based; conditions: Salmonella enterica
Shigella sonnei IID 969 = assay: as above; format: cell-based; conditions: Shigella sonnei, IID969; Gram -
[9] = tested on: Haemophilus influenzae IID 986; assay: as above; format: cell-based; conditions: Haemophilus influenzae, IID986
[10] = tested on: Neisseria perflava IID 856; assay: as above; format: cell-based; conditions: Neisseria perflava, IID856
[11] = tested on: Pseudomonas aeruginosa V-1; assay: as above; format: cell-based; conditions: Pseudomonas aeruginosa, V1
Ps. aeruginosa IFO 12689 = assay: as above; format: cell-based, Pseudomonas aeruginosa; conditions: Pseudomonas aeruginosa, IFO12689
Ps. aeruginosa IID 1210 = assay: as above; format: cell-based, Pseudomonas aeruginosa; conditions: Pseudomonas aeruginosa, IID1210
Ps. aeruginosa IID 1130 = assay: as above; format: cell-based, Pseudomonas aeruginosa; conditions: Pseudomonas aeruginosa, IID1130
[12] = tested on: gram-positive and gram-negative bacteria including Pseudomonas aeruginosa; assay: Antibacterial spectrum in vitro (summary in words); format: cell-based
[13] = Chelate formation with ferric ion; format: physicochemical; conditions: one third molar equivalent of ferric chloride hexahydrate, water
Source text: It is known that most of drugs such as Quinoform and Ethambutol which form chelates with metal ions in vivo produce undesirable side effects.

[14] = tested on: Escherichia coli NIHJ JC-2; assay: Preventive effect against ascending kidney infection in mice with Escherichia coli; format: in vivo, Escherichia coli; mice (ddY, female); conditions: Escherichia coli
Description: Ascending kidney infection was induced in female mice (strain: ddY, 6 weeks old, body weight: 22-26g), by instilling Escherlichia coli NIHJ JC-2 suspended in 0.04 ml of Tryptosoya broth (Nissan) into the urinary tract of mice anesthetized with sodium pentobarbital and by holding for 6 hours the mice in plastic tubes (diameter 25 mm) and clamping the outlet of urinary tract.
Each of these test material was orally administered 3 hours after inoculation. Mice were sacrificed 48 hours after inoculation. Kidneys were removed aseptically and bisected, and the two halves were pressed and streaked on agar plate containing Desoxycholate medium (Nissan). The therapeutic effect of each compound was evaluated from the absence of growth on the agar surface after 20 hours of incubation at 37° C.

[15] = tested on: Escherichia coli NIHJ JC-2; assay: Influence of rat bile on antibacterial activity; format: cell-based; conditions: bile of rats
Description: Nutrient agar was heated and melted. […] The diameter of the inhibition zone was measured.

Escherichia coli = assay: Concentration ratio in serum to M.I.C. after oral administration of 50 mg/kg in rats; format: in vivo, Escherichia coli; rats; conditions: rat, 50 mg/kg oral
[16] = Biliary excretion in rats after a single oral administration of 50 mg/kg; conditions: in vivo, rat, 50 mg/kg oral
[17] = Chem. Abstr., 62, 15600h (1965); cited from earlier work

**Q.** With `CCn1cc(C(=O)O)c(=O)c2ccc(C)nc21` [Nalidixic acid] as the compound, how does the MIC [1] read?
**A.** 6.25 µg/mL (≈ 26.9 µM)

**Q.** And the MIC [2]?
**A.** 100 µg/mL (≈ 431 µM)

**Q.** And the MIC (Sta. aureus ATCC 14775)?
**A.** > 100 µg/mL

**Q.** What about the MIC [3] of the same compound?
**A.** > 100 µg/mL

**Q.** And the MIC (Str. pyogenes S-8)?
**A.** > 100 µg/mL

**Q.** And the MIC [4]?
**A.** > 100 µg/mL

**Q.** And the MIC [5]?
**A.** 100 µg/mL (≈ 431 µM)

**Q.** And the MIC (My. smegmatis IFO 3083)?
**A.** > 100 µg/mL

**Q.** What about the MIC (Escherichia coli NIHJ) of the same compound?
**A.** 3.13 µg/mL (≈ 13.5 µM)

**Q.** And the MIC (E. coli ATCC 10536)?
**A.** 3.13 µg/mL (≈ 13.5 µM)

**Q.** And the MIC [6]?
**A.** 3.13 µg/mL (≈ 13.5 µM)

**Q.** And the MIC (Pr. vulgaris XK Denken)?
**A.** 3.13 µg/mL (≈ 13.5 µM)

**Q.** And the MIC [7]?
**A.** 1.56 µg/mL (≈ 6.72 µM)

**Q.** And the MIC [8]?
**A.** 12.5 µg/mL (≈ 53.8 µM)

**Q.** What about the MIC (Shigella sonnei IID 969) of the same compound?
**A.** 1.56 µg/mL (≈ 6.72 µM)

**Q.** What about the MIC [9] of the same compound?
**A.** 1.56 µg/mL (≈ 6.72 µM)

**Q.** What about the MIC [10] of the same compound?
**A.** 1.56 µg/mL (≈ 6.72 µM)

**Q.** And the MIC [11]?
**A.** 100 µg/mL (≈ 431 µM)

**Q.** And the MIC (Ps. aeruginosa IFO 12689)?
**A.** > 200 µg/mL

**Q.** What about the MIC (Ps. aeruginosa IID 1210) of the same compound?
**A.** > 200 µg/mL

**Q.** And the MIC (Ps. aeruginosa IID 1130)?
**A.** > 200 µg/mL

**Q.** And the “antibacterial activity (in words)” value [12]?
**A.** inactive on many strains of gram-positive bacteria and many Pseudomonas aeruginosa strains

**Q.** And the “shift of absorption maxima on treatment with ferric ion” value ([13]; from 256 and 326 nm, NaOH)?
**A.** shifted to shorter wave length at 248 and 311 nm

**Q.** What about the “chelate compound with ferric ion” value ([13]; molar equivalent of sodium hydroxide) of the same compound?
**A.** 3:1 chelate compound of nalidixic acid and ferric ion was obtained

**Q.** What about the ED90 ([14]; NIHJJC2, 48 h) of the same compound?
**A.** 345 mg/kg

**Q.** And the ED50 ([14]; NIHJJC2, po, 48 h, read-out: ED50 (95% confidence limit))?
**A.** 86 mg/kg

**Q.** What about the “antibacterial activity in presence of bile (in words)” value [15] of the same compound?
**A.** not influenced by bile of rats

**Q.** And the “serum concentration / M.I.C. ratio (in words)” value (Escherichia coli)?
**A.** smaller than that of the compound (II)

**Q.** What about the dose excreted at 3 h ([16]; 0-3 hours, mean ±S.E., read-out: Biliary excretion, cumulative recovery) of the same compound?
**A.** 0.29 ± 0.03%

**Q.** And the concentration at 3 h ([16]; 0-3 hrs., mean±S.E., read-out: Biliary level)?
**A.** 14700 ± 1500 ng/mL

**Q.** What about the dose excreted at 6 h ([16]; 0-6 hours, mean ±S.E., read-out: Biliary excretion, cumulative recovery) of the same compound?
**A.** 0.56 ± 0.05%

**Q.** And the dose excreted at 24 h ([16]; 0-24 hours, mean ±S.E., read-out: Biliary excretion, cumulative recovery)?
**A.** 1.33 ± 0.1%

**Q.** And the dose excreted at 27 h ([16]; 0-27 hours, mean ±S.E., read-out: Biliary excretion, cumulative recovery)?
**A.** 1.33 ± 0.1%

**Q.** And the concentration at 6 h ([16]; 3-6 hrs., mean±S.E., read-out: Biliary level)?
**A.** 16600 ± 2400 ng/mL

**Q.** And the concentration at 24 h ([16]; 6-24 hrs., mean±S.E., read-out: Biliary level)?
**A.** 9300 ± 1600 ng/mL

**Q.** And the concentration at 27 h ([16]; 24-27 hrs., read-out: Biliary level (not detected symbol))?
**A.** < 2000 ng/mL

**Q.** What about the “chelate compound with ferric ion” value [17] of the same compound?
**A.** afforded chelate compound when treated with ferric ion
